Test results from US12441718B2, “Selective angiotensin II compounds” (VICORE PHARMA AB, priority 2021, dated 2025).
pIC50, pKi: −log10 of the molar value. Like-named read-outs stand apart in the source and are kept apart here.

How the values were obtained:
[1] = biological target: T1, CYP1A2 (Homo sapiens, UniProt P05177); assay: in vitro; type: in vitro ADME; conditions: human, microsomes, human liver microsomes, substrate phenacetin, read-out: CYP1A2 Inh %
T1 construct: isoform-specific substrates incubated with human liver microsomes; tissue Eurofins ITEMG232 (protocol number); host or cells: human liver microsomes
T1 sequence (P05177 whole entry, canonical isoform): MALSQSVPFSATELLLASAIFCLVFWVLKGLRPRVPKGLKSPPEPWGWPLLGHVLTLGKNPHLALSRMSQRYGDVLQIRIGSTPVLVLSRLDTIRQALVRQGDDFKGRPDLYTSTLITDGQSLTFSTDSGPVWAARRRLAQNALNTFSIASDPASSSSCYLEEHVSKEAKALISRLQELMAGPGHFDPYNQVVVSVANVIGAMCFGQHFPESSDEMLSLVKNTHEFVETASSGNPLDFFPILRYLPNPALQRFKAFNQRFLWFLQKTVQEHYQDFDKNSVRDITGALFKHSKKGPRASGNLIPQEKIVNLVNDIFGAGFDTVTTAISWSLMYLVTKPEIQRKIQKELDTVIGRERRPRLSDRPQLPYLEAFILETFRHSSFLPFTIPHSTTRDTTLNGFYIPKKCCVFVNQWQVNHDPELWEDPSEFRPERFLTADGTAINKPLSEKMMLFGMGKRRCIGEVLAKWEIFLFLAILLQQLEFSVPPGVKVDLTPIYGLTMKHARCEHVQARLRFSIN
Description: The following substrates were used; CYP1A phenacetin, CYP2B36 bupropion, CYP2C8 paclitaxel and amodiaquine, CYP2C9 diclofenac, CYP2C19 omeprazole, CYP2D6 dextromethorphan, CYP3A midazolam and testosterone.
At the end of the incubation, the formation of metabolite was monitored by HPLC-MS/MS as the peak area response.

[2] = Metabolic stability in pooled human liver microsomes; type: in vitro ADME; conditions: human, pooled human liver microsomes, pooled human liver microsomes 0.5 mg/mL, 1 μM test compound, 37° C., * rows = mean of two runs
Summary of the method: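 Pooled human liver microsomes (0.5 mg/mL in PBS) preincubated ±1 mM NADPH at 37° C; test compound added at 10 min to 1 μM final. Samples at 0, 5, 15 and 60 min quenched in acetonitrile, parent quantified by LC-MS/MS against a standard curve (terfenadine internal standard). Initial metabolic rate calculated with and without NADPH.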

[3] = tested on: CYP3A4&5; assay: in vitro; conditions: human, human liver microsomes, probe testosterone;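 further: Read-out is the metabolite generated from the probe substrate, quantified as HPLC-MS/MS peak area once incubation ends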
[4] = biological target: T2, CYP2C8 (Homo sapiens, UniProt P10632); assay: CYP inhibition in human liver microsomes (Eurofins ITEMG232); type: in vitro ADME; conditions: human, probe paclitaxel and amodiaquine, substrate paclitaxel and amodiaquine, read-out: CYP2C8 Inh %
T2 construct: isoform-specific substrates incubated with human liver microsomes; tissue Eurofins ITEMG232 (protocol number); host or cells: human liver microsomes
T2 sequence (P10632 1-490): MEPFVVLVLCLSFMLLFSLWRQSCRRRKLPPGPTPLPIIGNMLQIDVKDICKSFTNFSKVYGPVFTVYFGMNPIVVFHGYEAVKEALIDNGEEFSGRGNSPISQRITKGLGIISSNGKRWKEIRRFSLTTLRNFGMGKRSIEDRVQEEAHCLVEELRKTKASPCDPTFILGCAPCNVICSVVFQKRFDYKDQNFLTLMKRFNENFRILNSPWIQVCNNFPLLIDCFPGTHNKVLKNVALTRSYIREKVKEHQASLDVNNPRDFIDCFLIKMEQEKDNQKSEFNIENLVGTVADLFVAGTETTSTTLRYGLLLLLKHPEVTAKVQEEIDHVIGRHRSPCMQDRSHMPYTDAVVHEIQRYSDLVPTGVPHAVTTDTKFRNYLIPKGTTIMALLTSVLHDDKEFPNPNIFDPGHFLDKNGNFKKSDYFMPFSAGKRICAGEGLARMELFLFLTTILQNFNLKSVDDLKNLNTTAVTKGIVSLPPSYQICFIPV

[5] = biological target: CYP3A4 (Homo sapiens, UniProt P08684); assay: CYP inhibition in human liver microsomes (Eurofins ITEMG232), midazolam substrate; type: in vitro ADME; design: isoform-specific substrates incubated with human liver microsomes; tissue Eurofins ITEMG232 (protocol number); host or cells: human liver microsomes; conditions: human, probe midazolam, read-out: CYP3A4 midazolam Inh %
Sequence of CYP3A4 (P08684 whole entry, canonical isoform): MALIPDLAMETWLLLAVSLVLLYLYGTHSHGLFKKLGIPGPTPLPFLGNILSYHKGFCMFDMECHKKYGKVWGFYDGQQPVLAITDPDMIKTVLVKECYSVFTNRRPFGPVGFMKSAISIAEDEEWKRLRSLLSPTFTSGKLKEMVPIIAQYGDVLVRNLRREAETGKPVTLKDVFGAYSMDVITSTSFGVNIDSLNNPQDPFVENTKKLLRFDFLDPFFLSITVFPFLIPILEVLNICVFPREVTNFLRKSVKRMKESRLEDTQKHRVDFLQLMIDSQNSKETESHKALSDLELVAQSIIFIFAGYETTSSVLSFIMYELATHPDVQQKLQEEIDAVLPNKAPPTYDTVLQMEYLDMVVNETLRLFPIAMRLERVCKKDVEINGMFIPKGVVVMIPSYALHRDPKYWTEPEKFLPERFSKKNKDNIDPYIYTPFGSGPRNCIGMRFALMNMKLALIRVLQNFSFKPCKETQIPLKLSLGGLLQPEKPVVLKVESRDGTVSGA

[6] = biological target: CYP2C9 (Homo sapiens, UniProt P11712); assay: CYP inhibition in human liver microsomes (Eurofins ITEMG232); type: in vitro ADME; design: isoform-specific substrates incubated with human liver microsomes; tissue Eurofins ITEMG232 (protocol number); host or cells: human liver microsomes; conditions: human, probe diclofenac, substrate diclofenac, read-out: CYP2C9 Inh %
Sequence of CYP2C9 (P11712 whole entry, canonical isoform): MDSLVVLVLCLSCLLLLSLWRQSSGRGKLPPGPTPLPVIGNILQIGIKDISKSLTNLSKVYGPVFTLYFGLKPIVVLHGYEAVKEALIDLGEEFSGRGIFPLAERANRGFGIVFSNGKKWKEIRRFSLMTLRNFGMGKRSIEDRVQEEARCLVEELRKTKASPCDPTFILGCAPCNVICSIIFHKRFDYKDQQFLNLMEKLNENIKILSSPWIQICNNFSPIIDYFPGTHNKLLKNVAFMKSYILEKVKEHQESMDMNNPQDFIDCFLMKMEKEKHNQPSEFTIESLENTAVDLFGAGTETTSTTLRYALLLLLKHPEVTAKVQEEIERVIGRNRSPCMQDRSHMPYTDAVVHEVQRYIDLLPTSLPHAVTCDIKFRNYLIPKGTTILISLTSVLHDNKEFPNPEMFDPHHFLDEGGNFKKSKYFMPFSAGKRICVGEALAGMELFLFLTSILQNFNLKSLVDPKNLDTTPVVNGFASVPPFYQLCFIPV

[7] = biological target: T3, CYP2B6 (Homo sapiens, UniProt P20813); assay: as above; type: in vitro ADME; conditions: probe bupropion, substrate bupropion, read-out: CYP2B6 Inh %
T3 construct: isoform-specific substrates incubated with human liver microsomes; tissue Eurofins ITEMG232 (protocol number); host or cells: human liver microsomes
T3 sequence (P20813 1-491): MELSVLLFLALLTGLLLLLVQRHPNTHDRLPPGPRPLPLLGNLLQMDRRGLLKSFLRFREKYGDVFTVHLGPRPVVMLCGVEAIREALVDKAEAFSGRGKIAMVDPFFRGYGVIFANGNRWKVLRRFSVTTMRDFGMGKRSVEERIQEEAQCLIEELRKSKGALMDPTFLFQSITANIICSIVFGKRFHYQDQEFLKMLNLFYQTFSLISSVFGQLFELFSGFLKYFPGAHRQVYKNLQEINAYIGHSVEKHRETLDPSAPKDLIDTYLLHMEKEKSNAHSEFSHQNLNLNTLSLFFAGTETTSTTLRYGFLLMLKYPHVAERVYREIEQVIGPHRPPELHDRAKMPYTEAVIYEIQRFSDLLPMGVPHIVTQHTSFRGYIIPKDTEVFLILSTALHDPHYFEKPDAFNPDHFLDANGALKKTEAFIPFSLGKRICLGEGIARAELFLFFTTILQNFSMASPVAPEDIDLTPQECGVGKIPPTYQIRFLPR

[8] = biological target: T4, CYP2D6 (Homo sapiens, UniProt P10635); assay: as above; type: in vitro ADME; conditions: probe dextromethorphan, substrate dextromethorphan, read-out: CYP2D6 Inh %
T4 construct: isoform-specific substrates incubated with human liver microsomes; tissue Eurofins ITEMG232 (protocol number); host or cells: human liver microsomes
T4 sequence (P10635 whole entry, canonical isoform): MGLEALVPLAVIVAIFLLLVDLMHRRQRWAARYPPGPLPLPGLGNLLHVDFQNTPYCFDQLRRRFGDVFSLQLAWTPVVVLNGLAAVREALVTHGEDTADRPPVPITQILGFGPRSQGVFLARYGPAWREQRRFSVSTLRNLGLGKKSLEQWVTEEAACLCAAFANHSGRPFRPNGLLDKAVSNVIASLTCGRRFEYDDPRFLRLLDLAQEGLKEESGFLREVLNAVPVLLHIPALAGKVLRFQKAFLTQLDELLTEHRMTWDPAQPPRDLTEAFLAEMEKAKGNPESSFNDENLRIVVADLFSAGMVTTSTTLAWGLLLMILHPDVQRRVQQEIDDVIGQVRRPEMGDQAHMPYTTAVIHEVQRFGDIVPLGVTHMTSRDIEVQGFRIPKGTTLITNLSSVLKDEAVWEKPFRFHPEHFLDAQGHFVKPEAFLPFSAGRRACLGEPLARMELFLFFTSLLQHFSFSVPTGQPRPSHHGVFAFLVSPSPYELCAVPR

[9] = biological target: T5, CYP2C19 (Homo sapiens, UniProt P33261); assay: as above; type: in vitro ADME; conditions: human, probe omeprazole, substrate omeprazole, read-out: CYP2C19 Inh %
T5 construct: isoform-specific substrates incubated with human liver microsomes; tissue Eurofins ITEMG232 (protocol number); host or cells: human liver microsomes
T5 sequence (P33261 whole entry, canonical isoform): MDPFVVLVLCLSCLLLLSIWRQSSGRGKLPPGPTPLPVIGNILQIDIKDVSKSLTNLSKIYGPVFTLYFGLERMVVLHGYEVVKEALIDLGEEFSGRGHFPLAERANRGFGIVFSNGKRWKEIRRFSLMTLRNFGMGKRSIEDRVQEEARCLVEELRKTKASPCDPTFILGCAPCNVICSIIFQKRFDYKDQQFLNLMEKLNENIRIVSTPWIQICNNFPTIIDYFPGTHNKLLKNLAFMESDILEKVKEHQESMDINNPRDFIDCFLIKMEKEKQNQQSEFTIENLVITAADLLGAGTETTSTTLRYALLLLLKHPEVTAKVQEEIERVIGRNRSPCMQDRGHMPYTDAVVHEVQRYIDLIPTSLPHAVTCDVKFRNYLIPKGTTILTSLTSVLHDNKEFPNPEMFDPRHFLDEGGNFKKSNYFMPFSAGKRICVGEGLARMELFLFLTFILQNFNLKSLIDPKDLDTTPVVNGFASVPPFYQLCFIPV

[10] = biological target: T6, human recombinant AT2 receptor (Homo sapiens, UniProt P50052); assay: Binding to AT2 receptor, radiometric scintillation assay (Eurofins ITEM26); conditions: ligand 125I CGP 42112A, * rows = mean of runs; for pKi: seven-point dose-response curve; for pIC50: test compounds at 1, 10, 100 and 1000 nM, read-out: AT2 GraFit IC50
T6 construct: purchased Eurofins ITEM26 (protocol number)
T6 sequence (P50052 1-363): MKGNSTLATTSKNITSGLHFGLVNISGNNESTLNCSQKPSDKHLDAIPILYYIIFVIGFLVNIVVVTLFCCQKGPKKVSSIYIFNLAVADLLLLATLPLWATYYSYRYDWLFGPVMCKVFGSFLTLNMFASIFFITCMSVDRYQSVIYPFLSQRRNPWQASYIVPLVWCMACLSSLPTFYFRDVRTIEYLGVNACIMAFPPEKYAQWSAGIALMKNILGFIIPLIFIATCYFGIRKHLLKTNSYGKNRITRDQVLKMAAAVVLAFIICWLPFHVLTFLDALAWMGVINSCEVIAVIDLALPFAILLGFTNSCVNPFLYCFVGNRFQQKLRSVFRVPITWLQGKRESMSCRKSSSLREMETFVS

[11] = with 1 mM NADPH, read-out: T1/2, + NaDPH
[12] = without NADPH, read-out: T1/2, no NaDPH

| inhibition at 10 µM [1] [%] | half-life at 1 μM [2, 11] [h] | half-life at 1 μM [2, 12] [h] | inhibition at 10 µM [3] [%] | inhibition at 10 µM [4] [%] | inhibition at 10 µM [5] [%] | inhibition at 10 µM [6] [%] | inhibition at 10 µM [7] [%] | inhibition at 10 µM [8] [%] | inhibition at 10 µM [9] [%] | pKi [10] | pIC50 [10] | SMILES |
| --- | --- | --- | --- | --- | --- | --- | --- | --- | --- | --- | --- | --- |
| -6.4 | > 1 | > 1 | 26.4 | 59.1 | 45.8 | 76.8 | 37.9 | 6.8 | 60.2 | 8.87 | 8.57 | CC(C)Cc1ccc(S(=O)(=O)Nc2ncc(C(F)(F)F)cn2)c(-c2ccc(Cn3ccnc3C(C)(C)C)c(F)c2)c1 [Example 21, 4′-((2-(tert-Butyl)-1H-imidazol-1-yl)methyl)-3′-fluoro-5-isobutyl-N-(5-(trifluoromethyl)pyrimidin-2-yl)-[1,1′-biphenyl]-2-sulfonamide] |
| 6.6 | 0.233 | > 1 | 39.7 | 24.6 | 55.8 | 42.9 | 5.7 | 4.5 | 63.5 | 9.49 | 9.19 | COc1ccc(NS(=O)(=O)c2ccc(CC(C)C)cc2-c2ccc(Cn3ccnc3C(C)(C)C)c(F)c2)nn1 [Example 23, 4′-((2-(tert-Butyl)-1H-imidazol-1-yl)methyl)-3′-fluoro-5-isobutyl-N-(6-methoxypyridazin-3-yl)-[1,1′-biphenyl]-2-sulfonamide] |
| -5.4 | 0.1 | > 1 | 57.3 | 40 | 65.1 | 80.7 | 19.4 | 11.9 | 65.8 | 7.12 | 6.82 | COc1ncnc(OC)c1NS(=O)(=O)c1ccc(CC(C)C)cc1-c1ccc(Cn2ccnc2C(C)(C)C)c(F)c1 [Example 25, 4′-((2-(tert-Butyl)-1H-imidazol-1-yl)methyl)-N-(4,6-dimethoxypyrimidin-5-yl)-3′-fluoro-5-isobutyl-[1,1′-biphenyl]-2-sulfonamide] |
| 10.3 | 0.733 | > 1 | 34.9 | 9.9 | 48.7 | 66.4 | 16.9 | 44.1 | 46.5 | 8.77 | 9.08 | Cc1cnc(NS(=O)(=O)c2ccc(CC(C)C)cc2-c2ccc(Cn3ccnc3C(C)(C)C)c(F)c2)nc1 [Example 26, 4′-((2-(tert-Butyl)-1H-imidazol-1-yl)methyl)-3′-fluoro-5-isobutyl-N-(5-methylpyrimidin-2-yl)-[1,1′-biphenyl]-2-sulfonamide] |

Further lines, the compound ahead of its results:

| SMILES | inhibition at 10 µM [1] [%] | half-life at 1 μM [2, 11] [h] | half-life at 1 μM [2, 12] [h] | inhibition at 10 µM [3] [%] | inhibition at 10 µM [4] [%] | inhibition at 10 µM [5] [%] | inhibition at 10 µM [6] [%] | inhibition at 10 µM [7] [%] | inhibition at 10 µM [8] [%] | inhibition at 10 µM [9] [%] | pKi [10] | pIC50 [10] |
| --- | --- | --- | --- | --- | --- | --- | --- | --- | --- | --- | --- | --- |
| CC(C)Cc1ccc(S(=O)(=O)Nc2ncccn2)c(-c2ccc(Cn3ccnc3C(C)C)c(F)c2)c1 [Example 27, 3′-Fluoro-5-isobutyl-4′-((2-isopropyl-1H-imidazol-1-yl)methyl)-N-(pyrimidin-2-yl)-[1,1′-biphenyl]-2-sulfonamide] | 17.4 | > 1 | > 1 | 25.9 | 21.3 | 28.3 | 31.6 | 15.7 | 13.8 | 22.2 | 9.51 | 9.21 |
| Cc1nccn1Cc1ccc(-c2cc(CC(C)C)ccc2S(=O)(=O)Nc2ncccn2)cc1F [Example 28, 3′-Fluoro-5-isobutyl-4′-((2-methyl-1H-imidazol-1-yl)methyl)-N-(pyrimidin-2-yl)-[1,1′-biphenyl]-2-sulfonamide] | 22.2 | > 1 | > 1 | 37.4 | 41.6 | 34.8 | 31.1 | 40.8 | 14.2 | 65 | 9.40 | 9.10 |
| CCc1nccn1Cc1ccc(-c2cc(CC(C)C)ccc2S(=O)(=O)Nc2ncccn2)cc1F [Example 29, 4′-((2-Ethyl-1H-imidazol-1-yl)methyl)-3′-fluoro-5-isobutyl-N-(pyrimidin-2-yl)-[1,1′-biphenyl]-2-sulfonamide] | 13.6 | > 1 | > 1 | 21.8 | 58.2 | 15.4 | 43 | 25 | 7.4 | 43.6 | 9.35 | 9.05 |
